Columns and labels:
[1] = target: Glycogen synthase kinase-3 beta (Homo sapiens, UniProt P49841); assay: Inhibition of full-length recombinant human His-tagged GSK3B recombinant in baculovirus expression system using Alexa-Fluor tracer-236 incubated for 60 mins by TR-FRET based Lantha-screen Eu kinase assay
[2] = target: Dual specificity tyrosine-phosphorylation-regulated kinase 1A (Homo sapiens, UniProt Q13627)
[3] = Induction of nuclear localization of GFP-tagged NFAT (unknown origin) expressed in mouse muscle fibres by DAPI staining based assay

Sequence of Glycogen synthase kinase-3 beta (P49841 whole entry): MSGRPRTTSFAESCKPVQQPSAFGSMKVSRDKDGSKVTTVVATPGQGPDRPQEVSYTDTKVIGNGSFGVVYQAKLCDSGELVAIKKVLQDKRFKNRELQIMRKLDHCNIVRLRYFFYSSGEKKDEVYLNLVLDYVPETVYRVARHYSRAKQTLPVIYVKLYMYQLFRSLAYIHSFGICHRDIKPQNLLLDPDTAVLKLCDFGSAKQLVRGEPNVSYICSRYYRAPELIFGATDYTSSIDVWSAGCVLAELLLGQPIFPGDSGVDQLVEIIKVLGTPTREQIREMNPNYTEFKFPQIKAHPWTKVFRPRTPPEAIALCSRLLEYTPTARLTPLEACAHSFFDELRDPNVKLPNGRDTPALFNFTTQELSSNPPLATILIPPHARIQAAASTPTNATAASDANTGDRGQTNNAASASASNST

| SMILES | IC50 ([1]; read-out: IC50) [µM] | IC50 [2] [µM] | IC50 [1] | EC50 [3] [µM] |
| --- | --- | --- | --- | --- |
| Clc1cnccc1-c1c[nH]c2cnccc12 | 9.61 | 0.061 | – | – |
| Nc1cc(-c2c[nH]c3c([N+](=O)[O-])cccc23)ccn1 | – | 0.285 | Not Active | – |
| Nc1nccc(-c2c[nH]c3c(Cl)cccc23)n1 | – | 0.046 | Not Active | – |
| Nc1nccc(-c2c[nH]c3cc(Cl)ccc23)n1 | 10.7 | 0.406 | – | – |
| Nc1cc(-c2c[nH]c3cc(Cl)ccc23)ccn1 | – | 2.94 | Not Active | – |
| Nc1cc(-c2c[nH]c3c(Cl)cccc23)ccn1 | – | 0.094 | Not Active | – |
| c1cc(-c2cn(CCC3CC3)c3cnccc23)ccn1 | 1.14 | 0.008 | – | – |
| Fc1cc(-c2c[nH]c3cnccc23)ccn1 | – | 0.069 | Not Active | – |
| Cc1cc(-c2c[nH]c3cnccc23)ccn1 | – | 0.075 | Not Active | – |
| COc1ccc2c(-c3ccnc(N)c3)c[nH]c2c1 | 12.7 | 2.9 | – | – |
| Nc1nccc(-c2c[nH]c3cc(C(F)(F)F)ccc23)n1 | 15.3 | 0.062 | – | – |
| N#Cc1cccc2c(-c3ccnc(N)c3)c[nH]c12 | 13.9 | 0.79 | – | – |
| c1cc(-c2cn(CCCN3CCOCC3)c3cnccc23)ccn1 | 7.58 | 0.109 | – | – |
| c1ccc2c(-c3c[nH]c4cnccc34)ccnc2c1 | – | 0.277 | Not Active | – |
| Nc1nccc(-c2c[nH]c3c(Br)cccc23)n1 | 22.4 | 0.079 | – | – |
| CC(C)n1cc(-c2ccncc2)c2ccncc21 | 0.66 | 0.008 | – | 2.8 |

| SMILES | IC50 ([1]; read-out: IC50) [µM] | IC50 [2] [µM] | IC50 [1] | EC50 [3] [µM] |
| --- | --- | --- | --- | --- |
| Fc1ccc(Cn2cc(-c3ccncc3)c3ccncc32)cc1 | 1.01 | 0.012 | – | – |
| c1cc(-c2c[nH]c3cnccc23)ccn1 | 9.23 | 0.001 | – | – |
| Cn1cc(-c2ccncc2)c2ccncc21 | 4.78 | 0.089 | – | – |
| Nc1nccc(-c2c[nH]c3ccccc23)n1 | 14.8 | 0.588 | – | – |
| COc1ccc2c(c1)[nH]c1c(C)nccc12 [HARMINE] | – | – | Not Active | – |
| COc1cccc2c(-c3ccnc(N)c3)c[nH]c12 | – | 2.14 | Not Active | – |
| COc1ccc2c(-c3ccnc(N)n3)c[nH]c2c1 | 7.96 | 0.443 | – | – |
| Nc1cc(-c2c[nH]c3cnccc23)ccn1 | – | 2.02 | Not Active | – |
| Nc1nccc(-c2c[nH]c3c([N+](=O)[O-])cccc23)n1 | 9.95 | – | – | – |
| c1cncc(-c2c[nH]c3cnccc23)c1 | 31 | 7.96 | – | – |
| N#Cc1cccc2c(-c3ccnc(N)n3)c[nH]c12 | 5.16 | 0.138 | – | – |
| Nc1cc(-c2c[nH]c3cc(C(F)(F)F)ccc23)ccn1 | – | 4.33 | Not Active | – |
| Nc1nccc(-c2c[nH]c3cnccc23)n1 | 12.3 | 0.001 | – | – |
| Cc1nccc(-c2c[nH]c3cnccc23)n1 | – | 0.019 | Not Active | – |
| COc1cccc2c(-c3ccnc(N)n3)c[nH]c12 | 15.8 | 0.242 | – | – |
| COc1cc(-c2c[nH]c3cnccc23)ccn1 | – | 0.351 | Not Active | – |

Source: ChEMBL document CHEMBL4033637, “Developing DYRK inhibitors derived from the meridianins as a means of increasing levels of NFAT in the nucleus” (Bioorg Med Chem Lett, 2017)
